Each compound was assayed against baculovirus-expressed ALK (Homo sapiens, UniProt Q9UM73) (assay: ALK Kinase Assay (ELISA/TRF, PLC-γ substrate)). Settings: read-out: ALK Kinase Inhibition (IC50).
Type: biochemical
Description: Example compounds were tested for their ability to inhibit the kinase activity of baculovirus-expressed ALK using a modification of the ELISA protocol reported for trkA in Angeles, T. S. et al., Anal. Biochem. 1996, 236, 49-55, which is incorporated herein by reference in its entirety. Phosphorylation of the substrate, phospholipase C-gamma (PLC-γ) generated as a fusion protein with glutathione S-transferase (GST) as reported in Rotin, D. et al., EMBO J. 1992, 11, 559-567, which is incorporated herein by reference in its entirety, was detected with a europium-labeled anti-phosphotyrosine antibody and measured by time-resolved fluorescence (TRF). Briefly, each 96-well plate was coated with 100 μL/well of 10 μg/mL substrate (phospholipase C-γ) in Tris-buffered saline (TBS). […] The reaction was initiated by adding enzyme (30 ng/ml ALK) and was allowed to proceed at 37° C. for 15 minutes. Detection of the phosphorylated product was performed by adding 100 μl/well of Eu-N1 labeled PT66 antibody (Perkin Elmer # AD0041). Incubation at 37° C. then proceeded for one (1) hour, followed by addition of 100 μL enhancement solution (Wallac #1244-105). The plate was gently agitated and after thirty minutes, the fluorescence of the resulting solution was measured using the EnVision 2100 (or 2102) multilabel plate reader (Perkin Elmer).
Data analysis was performed using ActivityBase (IDBS, Guilford, UK). IC50 values were calculated by plotting percent inhibition versus log10 of the concentration of compound and fitting to the nonlinear regression sigmoidal dose-response (variable slope) equation in XLFit (IDBS, Guilford, UK).
Further: 1 µM ATP (Km level).

baculovirus-expressed ALK, sequence (Q9UM73 19-1620): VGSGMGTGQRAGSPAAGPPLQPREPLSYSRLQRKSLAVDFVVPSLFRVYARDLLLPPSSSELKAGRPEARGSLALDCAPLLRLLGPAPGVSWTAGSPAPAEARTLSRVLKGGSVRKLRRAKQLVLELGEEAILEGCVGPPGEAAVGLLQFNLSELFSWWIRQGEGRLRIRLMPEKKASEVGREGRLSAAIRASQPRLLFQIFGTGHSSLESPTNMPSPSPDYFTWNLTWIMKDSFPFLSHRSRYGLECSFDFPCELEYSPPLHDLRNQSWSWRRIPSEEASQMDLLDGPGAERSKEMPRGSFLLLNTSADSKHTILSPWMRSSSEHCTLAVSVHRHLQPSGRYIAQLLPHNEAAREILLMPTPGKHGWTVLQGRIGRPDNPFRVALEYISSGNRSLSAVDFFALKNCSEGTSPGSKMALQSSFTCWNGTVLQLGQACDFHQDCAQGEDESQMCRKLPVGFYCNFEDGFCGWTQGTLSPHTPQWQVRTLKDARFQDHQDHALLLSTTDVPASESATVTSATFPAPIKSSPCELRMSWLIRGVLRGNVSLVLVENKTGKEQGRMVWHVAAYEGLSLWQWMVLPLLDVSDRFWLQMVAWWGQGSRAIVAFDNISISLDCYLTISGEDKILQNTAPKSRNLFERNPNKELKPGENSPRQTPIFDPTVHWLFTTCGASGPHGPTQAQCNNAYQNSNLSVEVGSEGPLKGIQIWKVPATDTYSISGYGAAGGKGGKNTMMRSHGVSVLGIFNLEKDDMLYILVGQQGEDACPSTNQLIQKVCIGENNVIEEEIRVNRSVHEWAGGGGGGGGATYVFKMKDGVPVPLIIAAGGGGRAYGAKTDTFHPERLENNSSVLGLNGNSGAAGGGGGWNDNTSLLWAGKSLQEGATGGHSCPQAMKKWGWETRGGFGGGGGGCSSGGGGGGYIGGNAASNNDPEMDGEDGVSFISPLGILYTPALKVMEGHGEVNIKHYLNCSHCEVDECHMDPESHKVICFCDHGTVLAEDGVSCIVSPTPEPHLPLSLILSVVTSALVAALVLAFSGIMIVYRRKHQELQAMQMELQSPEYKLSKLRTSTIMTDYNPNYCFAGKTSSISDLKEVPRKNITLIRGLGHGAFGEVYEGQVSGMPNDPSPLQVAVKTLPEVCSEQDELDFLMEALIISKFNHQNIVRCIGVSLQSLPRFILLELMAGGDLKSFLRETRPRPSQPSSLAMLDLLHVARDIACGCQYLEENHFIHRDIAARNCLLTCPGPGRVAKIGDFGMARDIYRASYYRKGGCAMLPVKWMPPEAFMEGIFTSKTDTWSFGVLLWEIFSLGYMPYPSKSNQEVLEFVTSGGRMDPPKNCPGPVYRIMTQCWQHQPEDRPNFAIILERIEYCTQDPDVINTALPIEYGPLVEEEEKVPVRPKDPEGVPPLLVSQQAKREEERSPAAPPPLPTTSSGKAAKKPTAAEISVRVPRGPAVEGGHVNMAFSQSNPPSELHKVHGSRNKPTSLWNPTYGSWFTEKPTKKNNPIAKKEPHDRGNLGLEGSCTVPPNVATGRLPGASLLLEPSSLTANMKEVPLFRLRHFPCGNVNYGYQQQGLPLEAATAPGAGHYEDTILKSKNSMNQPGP

Row | Structure (SMILES) | IC50
1 | O=C(c1cccc(-c2cnc3c(c2)N(Cc2cc(Cl)ccc2C(F)(F)F)CCN3)c1)N1CCN(CCc2ccccn2)CC1 [Example 330, (3-{1-[5-Chloro-2-(trifluoromethyl)benzyl]-1,2,3,4-tetrahydropyrido[2,3-b]pyrazin-7-yl}phenyl)-[4-(2-pyridin-2-yl-ethyl)piperazin-1-yl]methanone] | 100 to 1000 nM
2 | O=C(NC(c1ccccc1)c1ccccc1)c1cccc(-c2cnc3c(c2)N(Cc2cc(Cl)ccc2C(F)(F)F)CCN3)c1 [Example 333, N-Benzhydryl-3-{1-[5-chloro-2-(trifluoromethyl)benzyl]-1,2,3,4-tetrahydropyrido[2,3-b]pyrazin-7-yl}benzamide] | 100 to 1000 nM
3 | CC(C)NC(=O)CN1CCN(C(=O)c2cccc(-c3cnc4c(c3)N(Cc3cc(Cl)ccc3C(F)(F)F)CCN4)c2)CC1 [Example 336, 2-[4-(3-{1-[5-Chloro-2-(trifluoromethyl)benzyl]-1,2,3,4-tetrahydropyrido[2,3-b]pyrazin-7-yl}benzoyl)piperazin-1-yl]-N-isopropylacetamide] | 100 to 1000 nM
4 | Cc1cc(N2CCN(C(=O)c3cccc(-c4cnc5c(c4)N(Cc4cc(Cl)ccc4C(F)(F)F)CCN5)c3)CC2)c2ccccc2n1 [Example 337, (3-{1-[5-Chloro-2-(trifluoromethyl)benzyl]-1,2,3,4-tetrahydropyrido[2,3-b]pyrazin-7-yl}phenyl)-[4-(2-methylquinolin-4-yl)piperazin-1-yl]methanone] | 100 to 1000 nM
5 | O=C(c1cccc(-c2cnc3c(c2)N(Cc2cc(Cl)ccc2C(F)(F)F)CCN3)c1)N1CCN(c2cnccn2)CC1 [Example 339, (3-{1-[5-Chloro-2-(trifluoromethyl)benzyl]-1,2,3,4-tetrahydropyrido[2,3-b]pyrazin-7-yl}phenyl)-(2,3,5,6-tetrahydro-[1,2′]bipyrazinyl-4-yl)methanone] | 100 to 1000 nM
6 | O=C(c1cccc(-c2cnc3c(c2)N(Cc2cc(Cl)ccc2C(F)(F)F)CCN3)c1)N1CCOCC1 [Example 341, (3-{1-[5-Chloro-2-(trifluoromethyl)benzyl]-1,2,3,4-tetrahydropyrido[2,3-b]pyrazin-7-yl}phenyl)morpholin-4-ylmethanone] | 100 to 1000 nM
7 | COc1cccc(N2CCN(C(=O)c3cccc(-c4cnc5c(c4)N(Cc4cc(Cl)ccc4C(F)(F)F)CCN5)c3)CC2)c1 [Example 344, (3-{1-[5-Chloro-2-(trifluoromethyl)benzyl]-1,2,3,4-tetrahydropyrido[2,3-b]pyrazin-7-yl}phenyl)-[4-(3-methoxyphenyl)piperazin-1-yl]methanone] | 100 to 1000 nM
8 | COc1ccc(N2CCN(C(=O)c3cccc(-c4cnc5c(c4)N(Cc4cc(Cl)ccc4C(F)(F)F)CCN5)c3)CC2)cc1 [Example 345, (3-{1-[5-Chloro-2-(trifluoromethyl)benzyl]-1,2,3,4-tetrahydropyrido[2,3-b]pyrazin-7-yl}phenyl)-[4-(4-methoxyphenyl)piperazin-1-yl]methanone] | 100 to 1000 nM
9 | O=C(NC1CCCCC1)c1cccc(-c2cnc3c(c2)N(Cc2cc(Cl)ccc2C(F)(F)F)CCN3)c1 [Example 346, 3-{1-[5-Chloro-2-(trifluoromethyl)benzyl]-1,2,3,4-tetrahydropyrido[2,3-b]pyrazin-7-yl}-N-cyclohexylbenzamide] | 100 to 1000 nM
10 | O=C(c1cccc(-c2cnc3c(c2)N(Cc2cc(Cl)ccc2C(F)(F)F)CCN3)c1)N1CCN(C(=O)C2CCCO2)CC1 (centres unmarked) [Example 351, (3-{1-[5-Chloro-2-(trifluoromethyl)benzyl]-1,2,3,4-tetrahydropyrido[2,3-b]pyrazin-7-yl}phenyl)-[4-(tetrahydrofuran-2-carbonyl)piperazin-1-yl]methanone] | 100 to 1000 nM
11 | O=C(NCC1CCCO1)c1cccc(-c2cnc3c(c2)N(Cc2cc(Cl)ccc2C(F)(F)F)CCN3)c1 (centres unmarked) [Example 352, 3-{1-[5-Chloro-2-(trifluoromethyl)benzyl]-1,2,3,4-tetrahydropyrido[2,3-b]pyrazin-7-yl}-N-(tetrahydrofuran-2-ylmethyl)benzamide] | 100 to 1000 nM

Second part, the compound after the results:

Row | IC50 | Structure (SMILES)
12 | 1000 to 10000 nM | O=C(NCc1ccc(OC(F)(F)F)cc1)c1cccc(-c2cnc3c(c2)N(Cc2cc(Cl)ccc2C(F)(F)F)CCN3)c1 [Example 331, 3-{1-[5-Chloro-2-(trifluoromethyl)benzyl]-1,2,3,4-tetrahydropyrido[2,3-b]pyrazin-7-yl}-N-[4-(trifluoromethoxy)benzyl]benzamide]
13 | 100 to 1000 nM | O=C(NCc1cc(C(F)(F)F)cc(C(F)(F)F)c1)c1cccc(-c2cnc3c(c2)N(Cc2cc(Cl)ccc2C(F)(F)F)CCN3)c1 [Example 332, N-[3,5-Bis(trifluoromethyl)benzyl]-3-{1-[5-chloro-2-(trifluoromethyl)benzyl]-1,2,3,4-tetrahydropyrido[2,3-b]pyrazin-7-yl}benzamide]
14 | < 100 nM | O=C(NCc1ccncc1)c1cccc(-c2cnc3c(c2)N(Cc2cc(Cl)ccc2C(F)(F)F)CCN3)c1 [Example 334, 3-{1-[5-Chloro-2-(trifluoromethyl)benzyl]-1,2,3,4-tetrahydropyrido[2,3-b]pyrazin-7-yl}-N-pyridin-4-ylmethylbenzamide]
15 | 100 to 1000 nM | O=C(NCc1cccnc1)c1cccc(-c2cnc3c(c2)N(Cc2cc(Cl)ccc2C(F)(F)F)CCN3)c1 [Example 335, 3-{1-[5-Chloro-2-(trifluoromethyl)benzyl]-1,2,3,4-tetrahydropyrido[2,3-b]pyrazin-7-yl}-N-pyridin-3-ylmethylbenzamide]
16 | 100 to 1000 nM | NS(=O)(=O)c1ccc(CCNC(=O)c2cccc(-c3cnc4c(c3)N(Cc3cc(Cl)ccc3C(F)(F)F)CCN4)c2)cc1 [Example 338, 3-{1-[5-Chloro-2-(trifluoromethyl)benzyl]-1,2,3,4-tetrahydropyrido[2,3-b]pyrazin-7-yl}-N-[2-(4-sulfamoylphenyl)ethyl]benzamide]
17 | 100 to 1000 nM | O=C(NCc1csc(-c2ccccc2)n1)c1cccc(-c2cnc3c(c2)N(Cc2cc(Cl)ccc2C(F)(F)F)CCN3)c1 [Example 340, 3-{1-[5-Chloro-2-(trifluoromethyl)benzyl]-1,2,3,4-tetrahydropyrido[2,3-b]pyrazin-7-yl}-N-(2-phenylthiazol-4-ylmethyl)benzamide]
18 | 100 to 1000 nM | O=C(NCc1cccc2ccccc12)c1cccc(-c2cnc3c(c2)N(Cc2cc(Cl)ccc2C(F)(F)F)CCN3)c1 [Example 342, 3-{1-[5-Chloro-2-(trifluoromethyl)benzyl]-1,2,3,4-tetrahydropyrido[2,3-b]pyrazin-7-yl}-N-naphthalen-1-ylmethylbenzamide]
19 | 100 to 1000 nM | O=C(NC1CCc2ccccc21)c1cccc(-c2cnc3c(c2)N(Cc2cc(Cl)ccc2C(F)(F)F)CCN3)c1 (centres unmarked) [Example 343, 3-{1-[5-Chloro-2-(trifluoromethyl)benzyl]-1,2,3,4-tetrahydropyrido[2,3-b]pyrazin-7-yl}-N-indan-1-ylbenzamide]
20 | 100 to 1000 nM | CS(=O)(=O)c1ccc(CNC(=O)c2cccc(-c3cnc4c(c3)N(Cc3cc(Cl)ccc3C(F)(F)F)CCN4)c2)cc1 [Example 347, 3-{1-[5-Chloro-2-(trifluoromethyl)benzyl]-1,2,3,4-tetrahydropyrido[2,3-b]pyrazin-7-yl}-N-(4-methanesulfonylbenzyl)benzamide]
21 | 100 to 1000 nM | O=C(NCc1ccccc1Cl)c1cccc(-c2cnc3c(c2)N(Cc2cc(Cl)ccc2C(F)(F)F)CCN3)c1 [Example 348, N-(2-Chlorobenzyl)-3-{1-[5-Chloro-2-(trifluoromethyl)benzyl]-1,2,3,4-tetrahydropyrido[2,3-b]pyrazin-7-yl}benzamide]
22 | 100 to 1000 nM | O=C(NCc1ccc(Cl)cc1)c1cccc(-c2cnc3c(c2)N(Cc2cc(Cl)ccc2C(F)(F)F)CCN3)c1 [Example 349, N-(4-Chlorobenzyl)-3-{1-[5-Chloro-2-(trifluoromethyl)benzyl]-1,2,3,4-tetrahydropyrido[2,3-b]pyrazin-7-yl}benzamide]
23 | 1000 to 10000 nM | O=C(NCc1cccc(Cl)c1)c1cccc(-c2cnc3c(c2)N(Cc2cc(Cl)ccc2C(F)(F)F)CCN3)c1 [Example 350, N-(3-Chlorobenzyl)-3-{1-[5-Chloro-2-(trifluoromethyl)benzyl]-1,2,3,4-tetrahydropyrido[2,3-b]pyrazin-7-yl}benzamide]
24 | 1000 to 10000 nM | COc1cccc(CNC(=O)c2cccc(-c3cnc4c(c3)N(Cc3cc(Cl)ccc3C(F)(F)F)CCN4)c2)c1 [Example 353, 3-{1-[5-Chloro-2-(trifluoromethyl)benzyl]-1,2,3,4-tetrahydropyrido[2,3-b]pyrazin-7-yl}-N-(3-methoxybenzyl)benzamide]
25 | 100 to 1000 nM | COc1ccc(CNC(=O)c2cccc(-c3cnc4c(c3)N(Cc3cc(Cl)ccc3C(F)(F)F)CCN4)c2)cc1 [Example 354, 3-{1-[5-Chloro-2-(trifluoromethyl)benzyl]-1,2,3,4-tetrahydropyrido[2,3-b]pyrazin-7-yl}-N-(4-methoxybenzyl)benzamide]
26 | 100 to 1000 nM | O=C(NCCOc1ccccc1)c1cccc(-c2cnc3c(c2)N(Cc2cc(Cl)ccc2C(F)(F)F)CCN3)c1 [Example 355, 3-{1-[5-Chloro-2-(trifluoromethyl)benzyl]-1,2,3,4-tetrahydropyrido[2,3-b]pyrazin-7-yl}-N-(2-phenoxyethyl)benzamide]

Reference: patent publication US7601716B2, “Pyridopyrazines and derivatives thereof as ALK and c-Met inhibitors” (Cephalon, Inc., priority 2006, dated 2009)
